Laboratory results from patent US20190345138A1, “HETEROCYCLIC AMIDES AS KINASE INHIBITORS” (GlaxoSmithKline Intellectual Property Development Limited, priority 2016, published 2019).
Values joined by “and” are separate entries in the source; they are usually repeats but may differ in a detail not shown here. Equal entries are not always repeated.

Columns and labels:
RIP1 kinase = target: T1, RIP1 kinase (Homo sapiens, UniProt Q13546); experiment: fluorescent polarization based binding assay; conditions: mean of a minimum of 2 experiments
T1 sequence (Q13546 1-375 limits assumed): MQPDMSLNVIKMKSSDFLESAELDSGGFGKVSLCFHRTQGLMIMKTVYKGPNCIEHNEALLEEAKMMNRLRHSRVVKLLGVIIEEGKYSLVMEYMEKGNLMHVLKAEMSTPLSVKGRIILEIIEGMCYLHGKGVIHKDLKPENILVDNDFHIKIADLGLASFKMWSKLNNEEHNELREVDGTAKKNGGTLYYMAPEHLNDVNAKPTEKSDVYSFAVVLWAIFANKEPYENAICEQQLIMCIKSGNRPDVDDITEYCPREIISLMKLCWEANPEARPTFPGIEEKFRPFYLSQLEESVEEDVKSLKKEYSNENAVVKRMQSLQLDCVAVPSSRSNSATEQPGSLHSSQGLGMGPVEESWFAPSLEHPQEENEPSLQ
Excerpt: A fluorescent polarization based binding assay was used to assess the activity of the compounds of this invention, the details of which are disclosed in International Patent Appln. No. PCT/IB2014/059004, now, International Patent Appln. Pub.

[1] = system: human monocytic leukemia U937 cells; experiment: necroptosis assay in U937 cells; type: cell-based; conditions: Homo sapiens, U-937, U937 cells; viability by cellular ATP (Cell Titer-Glo); read-out: pIC50, inhibited necrosis in U937 cells (converted)
Protocol: The efficacy of RIP1 inhibitors can be tested […] in vitro using a human monocytic leukemia U937 or mouse L929 fibrosarcoma cells in a necroptosis assay. As determined using the method described in S. He et al., Cell, 137(6):1100-1111 (2009) and International Patent Appln. No. PCT/IB2014/059004, now, International Patent Appln. Pub.
Viability was measured by quantitating cellular levels of ATP using the Cell Titer-Glo kit. All data are means±standard deviation of the mean.

## N#Cc1cnc(N2CCC(C(=O)N3N=CCC3c3ccccc3)CC2)nc1 (racemic) [Example 2, 2-(4-(5-phenyl-4,5-dihydro-1H-pyrazole-1-carbonyl)piperidin-1-yl)pyrimidine-5-carbonitrile]
RIP1 kinase
  IC50: 1 to 31.6 nM
[1]
  IC50: 1 to 100 nM

## COc1ccnc(N2CCC(C(=O)N3N=CCC3c3ccccc3)CC2)n1 (racemic) [Example 3, (1-(4-methoxypyrimidin-2-yl)piperidin-4-yl)(5-phenyl-4,5-dihydro-1H-pyrazol-1-yl)methanone]
RIP1 kinase
  IC50: 1 to 31.6 nM
[1]
  IC50: 1 to 100 nM

## O=C(C1CCN(c2nccc(-c3ccccc3)n2)CC1)N1N=CCC1c1ccccc1 (racemic) [Example 4, (5-phenyl-4,5-dihydro-1H-pyrazol-1-yl)(1-(4-phenylpyrimidin-2-yl)piperidin-4-yl)methanone]
[1]
  IC50: 1 to 100 nM

## N#Cc1ccnc(N2CCC(C(=O)N3N=CCC3c3ccccc3)CC2)n1 (racemic) [Example 5, 2-(4-(5-phenyl-4,5-dihydro-1H-pyrazole-1-carbonyl)piperidin-1-yl)pyrimidine-4-carbonitrile]
[1]
  IC50: 1 to 100 nM

## COc1cnc(N2CCC(C(=O)N3N=CCC3c3ccccc3)CC2)nc1 (racemic) [Example 7, (1-(5-methoxypyrimidin-2-yl)piperidin-4-yl)(5-phenyl-4,5-dihydro-1H-pyrazol-1-yl)methanone]
RIP1 kinase
  IC50: 1 to 31.6 nM
[1]
  IC50: 1 to 100 nM

## O=C(C1CCN(c2ncc3[nH]cnc3n2)CC1)N1N=CC[C@H]1c1ccccc1 [Example 9, (S)-(1-(7H-purin-2-yl)piperidin-4-yl)(5-phenyl-4,5-dihydro-1H-pyrazol-1-yl)methanone]
RIP1 kinase
  IC50: 1 to 31.6 nM
[1]
  IC50: 1 to 100 nM

## COC(=O)c1cnc(N2CCC(C(=O)N3N=CC[C@H]3c3ccccc3)CC2)nc1 [Example 10, (S)-methyl 2-(4-(5-phenyl-4,5-dihydro-1H-pyrazole-1-carbonyl)piperidin-1-yl)pyrimidine-5-carboxylate]
RIP1 kinase
  IC50: 1 to 31.6 nM

## Nc1nccc(N2CCC(C(=O)N3N=CC[C@H]3c3ccccc3)CC2)n1 [Example 11, (S)-(1-(2-aminopyrimidin-4-yl)piperidin-4-yl)(5-phenyl-4,5-dihydro-1H-pyrazol-1-yl)methanone]
RIP1 kinase
  IC50: 1 to 31.6 nM
[1]
  IC50: 1 to 100 nM

## NC(=O)c1ccc(N2CCC(C(=O)N3N=CC[C@H]3c3ccccc3)CC2)nc1 [Example 30, (S)-6-(4-(5-phenyl-4,5-dihydro-1H-pyrazole-1-carbonyl)piperidin-1-yl)nicotinamide]
RIP1 kinase
  IC50: 1 to 31.6 nM

## O=C(C1CCN(c2nc(=O)c3cn[nH]c3[nH]2)CC1)N1N=CC[C@H]1c1ccccc1 [Example 37, (S)-6-(4-(5-phenyl-4,5-dihydro-1H-pyrazole-1-carbonyl)piperidin-1-yl)-1H-pyrazolo[3,4-d]pyrimidin-4(7H)-one]
RIP1 kinase
  IC50: 1 to 31.6 nM

## N#Cc1cccc([C@@H]2CC=NN2C(=O)C2CCN(c3ccn4nccc4n3)CC2)c1 [Example 62, (S)-3-(1-(1-(pyrazolo[1,5-a]pyrimidin-5-yl)piperidine-4-carbonyl)-4,5-dihydro-1H-pyrazol-5-yl)benzonitrile]
RIP1 kinase
  IC50: 1 to 31.6 nM

## NC(=O)c1cnc(N2CCC(C(=O)N3N=CC[C@H]3c3ccccc3)CC2)cn1 [Example 63, (S)-5-(4-(5-phenyl-4,5-dihydro-1H-pyrazole-1-carbonyl)piperidin-1-yl)pyrazine-2-carboxamide]
RIP1 kinase
  IC50: 1 to 31.6 nM

## CCOC(=O)c1coc(N2CCC(C(=O)N3N=CC[C@H]3c3ccccc3)CC2)n1 [Example 65, (S)-ethyl 2-(4-(5-phenyl-4,5-dihydro-1H-pyrazole-1-carbonyl)piperidin-1-yl)oxazole-4-carboxylate]
RIP1 kinase
  IC50: 1 to 31.6 nM

## COc1nccc(N2CCC(C(=O)N3N=CC[C@H]3c3cccc(C#N)c3)CC2)n1 [Example 75, (S)-3-(1-(1-(2-methoxypyrimidin-4-yl)piperidine-4-carbonyl)-4,5-dihydro-1H-pyrazol-5-yl)benzonitrile]
RIP1 kinase
  IC50: 1 to 31.6 nM

## O=C(C1CCN(c2ccn3nccc3n2)CC1)N1N=CC[C@H]1c1cc(F)cc(F)c1 [Example 90, (S)-(5-(3,5-difluorophenyl)-4,5-dihydro-1H-pyrazol-1-yl)(1-(pyrazolo[1,5-a]pyrimidin-5-yl)piperidin-4-yl)methanone]
RIP1 kinase
  IC50: 1 to 31.6 nM and 1 to 10 nM

## N#Cc1ccc(N2CCC(C(=O)N3N=CC[C@H]3c3cc(F)cc(F)c3)CC2)nn1 [Example 94, (S)-6-(4-(5-(3,5-difluorophenyl)-4,5-dihydro-1H-pyrazole-1-carbonyl)piperidin-1-yl)pyridazine-3-carbonitrile]
[1]
  IC50: 1 to 100 nM

## N#Cc1cnc(N2CCC(C(=O)N3N=CC[C@H]3c3cc(F)cc(F)c3)CC2)cn1 [Example 95, (S)-5-(4-(5-(3,5-difluorophenyl)-4,5-dihydro-1H-pyrazole-1-carbonyl)piperidin-1-yl)pyrazine-2-carbonitrile]
[1]
  IC50: 1 to 100 nM

## CCOC(=O)c1cnc(N2CCC(C(=O)N3N=CC[C@H]3c3cc(F)cc(F)c3)CC2)o1 [Example 107, (S)-ethyl 2-(4-(5-(3,5-difluorophenyl)-4,5-dihydro-1H-pyrazole-1-carbonyl)piperidin-1-yl)oxazole-5-carboxylate]
RIP1 kinase
  IC50: 1 to 31.6 nM

## N#Cc1cc(N2CCC(C(=O)N3N=CC[C@H]3c3cncc(F)c3)CC2)ncn1 [Example 111, (S)-6-(4-(5-(5-fluoropyridin-3-yl)-4,5-dihydro-1H-pyrazole-1-carbonyl)piperidin-1-yl)pyrimidine-4-carbonitrile]
[1]
  IC50: 1 to 100 nM

## COc1cc(N2CCC(C(=O)N3N=CC[C@H]3c3cncc(F)c3)CC2)ncn1 [Example 113, (S)-(5-(5-fluoropyridin-3-yl)-4,5-dihydro-1H-pyrazol-1-yl)(1-(6-methoxypyrimidin-4-yl)piperidin-4-yl)methanone]
RIP1 kinase
  IC50: 1 to 31.6 nM

## CSc1nccc(N2CCC(C(=O)N3N=CC[C@H]3c3cncc(F)c3)CC2)n1 [Example 114, (S)-(5-(5-fluoropyridin-3-yl)-4,5-dihydro-1H-pyrazol-1-yl)(1-(2-(methylthio)pyrimidin-4-yl)piperidin-4-yl)methanone]
RIP1 kinase
  IC50: 1 to 31.6 nM

## CC(=O)Nc1cc(N2CCC(C(=O)N3N=CC[C@H]3c3cc(F)cc(F)c3)CC2)ncn1 [Example 120, (S)-N-(6-(4-(5-(3,5-difluorophenyl)-4,5-dihydro-1H-pyrazole-1-carbonyl)piperidin-1-yl)pyrimidin-4-yl)acetamide]
RIP1 kinase
  IC50: 1 to 31.6 nM

## O=C(NC1CC1)c1ccnc(N2CCC(C(=O)N3N=CC[C@H]3c3ccccc3)CC2)n1 [Example 125, (S)—N-cyclopropyl-2-(4-(5-phenyl-4,5-dihydro-1H-pyrazole-1-carbonyl)piperidin-1-yl)pyrimidine-4-carboxamide]
[1]
  IC50: 1 to 100 nM

## Cc1nnc(-c2cc(N3CCC(C(=O)N4N=CC[C@H]4c4ccccc4)CC3)ncn2)o1 [Example 129, (S)-(1-(6-(5-methyl-1,3,4-oxadiazol-2-yl)pyrimidin-4-yl)piperidin-4-yl)(5-phenyl-4,5-dihydro-1H-pyrazol-1-yl)methanone]
[1]
  IC50: 1 to 100 nM

## NC(=O)c1coc(N2CCC(C(=O)N3N=CC[C@H]3c3ccccc3)CC2)n1 [Example 136, (S)-2-(4-(5-phenyl-4,5-dihydro-1H-pyrazole-1-carbonyl)piperidin-1-yl)oxazole-4-carboxamide]
RIP1 kinase
  IC50: 1 to 31.6 nM

## O=C(C1CCN(c2nccc(-c3nn[nH]n3)n2)CC1)N1N=CC[C@H]1c1ccccc1 [Example 148, (S)-(1-(4-(2H-tetrazol-5-yl)pyrimidin-2-yl)piperidin-4-yl)(5-phenyl-4,5-dihydro-1H-pyrazol-1-yl)methanone]
RIP1 kinase
  IC50: 1 to 31.6 nM and 1 to 10 nM

## O=C1NCCC1c1nc(N2CCC(C(=O)N3N=CC[C@H]3c3cncc(F)c3)CC2)ncc1F (stereo partly drawn) [Example 151, 3-(5-fluoro-2-(4-((S)-5-(5-fluoropyridin-3-yl)-4,5-dihydro-1H-pyrazole-1-carbonyl)piperidin-1-yl)pyrimidin-4-yl)pyrrolidin-2-one]
[1]
  IC50: 1 to 100 nM

## O=C(C1CCN(c2ncc(F)c(OCc3nn[nH]n3)n2)CC1)N1N=CC[C@H]1c1ccccc1 [Example 154, (S)-(1-(4-((2H-tetrazol-5-yl)methoxy)-5-fluoropyrimidin-2-yl)piperidin-4-yl)(5-phenyl-4,5-dihydro-1H-pyrazol-1-yl)methanone]
RIP1 kinase
  IC50: 1 to 31.6 nM and 1 to 10 nM

## NC(=O)c1ncnc(N2CCC(C(=O)N3N=CC[C@H]3c3cncc(F)c3)CC2)c1F [Example 160, (S)-5-fluoro-6-(4-(5-(5-fluoropyridin-3-yl)-4,5-dihydro-1H-pyrazole-1-carbonyl)piperidin-1-yl)pyrimidine-4-carboxamide]
[1]
  IC50: 1 to 100 nM

## O=C1NCC[C@@H]1c1nc(N2CCC(C(=O)N3N=CC[C@H]3c3cncc(F)c3)CC2)ncc1F [Example 166, (R)-3-(5-fluoro-2-(4-((S)-5-(5-fluoropyridin-3-yl)-4,5-dihydro-1H-pyrazole-1-carbonyl)piperidin-1-yl)pyrimidin-4-yl)pyrrolidin-2-one]
RIP1 kinase
  IC50: 1 to 31.6 nM

## NC(=O)COc1nc(N2CCC(C(=O)N3N=CC[C@H]3c3ccccc3)CC2)ncc1F [Example 167, (S)-2-((5-fluoro-2-(4-(5-phenyl-4,5-dihydro-1H-pyrazole-1-carbonyl)piperidin-1-yl)pyrimidin-4-yl)oxy)acetamide]
RIP1 kinase
  IC50: 1 to 31.6 nM
